PubChem BioAssay AID2060512 (Molecular Pharmacology Branch, DTP, NCI, 2025)

Test system: 186277-243-T-J2-PDC complex spheroid viability
Test: Anticancer human tumor 186277-243-T-J2-PDC patient-derived colon adenocarcinoma cell line growth inhibition [GQUAD]
Settings: for IC50: curve of first compound; for viability, T/C: stronger effect = lower value; active = viability on the fitted dose curve at most 10% of control; inactive = the rest
Procedure, shortened: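 Tumor cells were grown as complex spheroids with HUVEC endothelial cells and mesenchymal stem cells as stroma. G-quadruplex stabilizers were combined with targeted agents over half-log dilutions from near the clinical Cmax, or from 10 microM.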

[1] = second compound 0.0316 µM, first compound 0.0316 µM
[2] = second compound 0.0316 µM, first compound 0.1 µM
[3] = second compound 0.0316 µM, first compound 0.316 µM
[4] = second compound 0.0316 µM, first compound 1 µM
[5] = second compound 0.0316 µM, first compound 3.16 µM
[6] = second compound 0.0316 µM, first compound 10 µM
[7] = second compound 0.1 µM, first compound 0.0316 µM
[8] = second compound 0.1 µM, first compound 0.1 µM
[9] = second compound 0.1 µM, first compound 0.316 µM
[10] = second compound 0.1 µM, first compound 1 µM
[11] = second compound 0.1 µM, first compound 3.16 µM
[12] = second compound 0.1 µM, first compound 10 µM
[13] = second compound 0.316 µM, first compound 0.0316 µM
[14] = second compound 0.316 µM, first compound 0.1 µM
[15] = second compound 0.316 µM, first compound 0.316 µM
[16] = second compound 0.316 µM, first compound 1 µM
[17] = second compound 0.316 µM, first compound 3.16 µM
[18] = second compound 0.316 µM, first compound 10 µM
[19] = second compound 1 µM, first compound 0.0316 µM
[20] = second compound 1 µM, first compound 0.1 µM
[21] = second compound 1 µM, first compound 0.316 µM
[22] = second compound 1 µM, first compound 1 µM
[23] = second compound 1 µM, first compound 3.16 µM
[24] = second compound 1 µM, first compound 10 µM
[25] = second compound 3.16 µM, first compound 0.0316 µM
[26] = second compound 3.16 µM, first compound 0.1 µM
[27] = second compound 3.16 µM, first compound 0.316 µM
[28] = second compound 3.16 µM, first compound 1 µM
[29] = second compound 3.16 µM, first compound 3.16 µM
[30] = second compound 3.16 µM, first compound 10 µM
[31] = second compound 10 µM, first compound 0.0316 µM
[32] = second compound 10 µM, first compound 0.1 µM
[33] = second compound 10 µM, first compound 0.316 µM
[34] = second compound 10 µM, first compound 1 µM
[35] = second compound 10 µM, first compound 3.16 µM
[36] = second compound 10 µM, first compound 10 µM
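Also: spheroids exposed to drugs for 7 days.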
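For viability, T/C in this document: 100% = DMSO vehicle control viability.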

C=CCn1c(=O)c2cnc(Nc3ccc(N4CCN(C)CC4)cc3)nc2n1-c1cccc(C(C)(C)O)n1 + Cc1cnc(CNC(=O)c2c(=O)c3ccc(N4CCCN(C)CC4)nc3n3c2sc2ccccc23)cn1
117 nM: IC50 (second compound 0.0316 µM)
< 31.6 nM: IC50 (second compound 0.1 µM) | IC50 (second compound 1 µM) | IC50 (second compound 3.16 µM) | IC50 (second compound 10 µM)
inactive: viability, T/C [1] 93.8% | viability, T/C [2] 54.3% | viability, T/C [3] 22% | viability, T/C [4] 10.2% | viability, T/C [5] 12.2% | viability, T/C [6] 15.5% | viability, T/C [7] 49.1% | viability, T/C [8] 44.2% | viability, T/C [9] 25.8% | viability, T/C [10] 14.7% | viability, T/C [11] 13.8% | viability, T/C [12] 20.5% | viability, T/C [13] 51.8% | viability, T/C [14] 46.4% | viability, T/C [15] 33.5% | viability, T/C [16] 17.6% | viability, T/C [17] 17.8% | viability, T/C [18] 24.1% | viability, T/C [19] 27.7% | viability, T/C [20] 35.9% | viability, T/C [21] 30.5% | viability, T/C [22] 24.4% | viability, T/C [23] 23.5% | viability, T/C [24] 26.4% | viability, T/C [25] 34.5% | viability, T/C [26] 31.7% | viability, T/C [27] 34.5% | viability, T/C [28] 21.9% | viability, T/C [29] 23.4% | viability, T/C [30] 22.6% | viability, T/C [31] 31.8% | viability, T/C [32] 31.6% | viability, T/C [33] 31.5% | viability, T/C [34] 22.9% | viability, T/C [35] 22.8% | viability, T/C [36] 24.4%
35.1 nM: IC50 (second compound 0.316 µM)

CC(C)(O)C1CCC(Nc2ccc3ncc(-c4cccc(C(F)(F)F)c4)n3n2)CC1 (stereo not drawn) + Cc1cnc(CNC(=O)c2c(=O)c3ccc(N4CCCN(C)CC4)nc3n3c2sc2ccccc23)cn1
1190 nM: IC50 (second compound 0.316 µM)
active: viability, T/C [30] 0.12% | viability, T/C [35] 0.2% | viability, T/C [36] 0.2%
2430 nM: IC50 (second compound 0.0316 µM)
inactive: viability, T/C [1] 88.7% | viability, T/C [2] 85.8% | viability, T/C [3] 94.4% | viability, T/C [4] 75.5% | viability, T/C [5] 43% | viability, T/C [6] 37.2% | viability, T/C [7] 81.3% | viability, T/C [8] 78.1% | viability, T/C [9] 77% | viability, T/C [10] 59.6% | viability, T/C [11] 37.9% | viability, T/C [12] 34.3% | viability, T/C [13] 55.5% | viability, T/C [14] 49.5% | viability, T/C [15] 66.8% | viability, T/C [16] 54.2% | viability, T/C [17] 25.2% | viability, T/C [18] 20.9% | viability, T/C [19] 48.5% | viability, T/C [20] 48.2% | viability, T/C [21] 46.3% | viability, T/C [22] 43.2% | viability, T/C [23] 24.2% | viability, T/C [24] 22.1% | viability, T/C [25] 34.5% | viability, T/C [26] 42.2% | viability, T/C [27] 38.7% | viability, T/C [28] 35.3% | viability, T/C [29] 3.82% | viability, T/C [31] 37.5% | viability, T/C [32] 43.4% | viability, T/C [33] 37.1% | viability, T/C [34] 39.7%
1670 nM: IC50 (second compound 0.1 µM)
< 31.6 nM: IC50 (second compound 1 µM) | IC50 (second compound 3.16 µM) | IC50 (second compound 10 µM)

COc1ncnc(C2CC2)c1-c1ncc2cnn(Cc3ccc(-c4nc(C(F)(F)F)cn4C(C)C)cc3)c2n1 + Cc1cnc(CNC(=O)c2c(=O)c3ccc(N4CCCN(C)CC4)nc3n3c2sc2ccccc23)cn1
inactive: viability, T/C [1] 90% | viability, T/C [2] 73.9% | viability, T/C [3] 86.6% | viability, T/C [4] 67% | viability, T/C [5] 79.1% | viability, T/C [6] 76.1% | viability, T/C [7] 67.3% | viability, T/C [8] 55.1% | viability, T/C [9] 62.3% | viability, T/C [10] 51.5% | viability, T/C [11] 69% | viability, T/C [12] 62.1% | viability, T/C [13] 55.5% | viability, T/C [14] 57.2% | viability, T/C [15] 61.6% | viability, T/C [16] 53.1% | viability, T/C [17] 62.6% | viability, T/C [18] 48.5% | viability, T/C [19] 42.4% | viability, T/C [20] 39.3% | viability, T/C [21] 38.2% | viability, T/C [22] 36.1% | viability, T/C [23] 48.1% | viability, T/C [24] 33.2% | viability, T/C [25] 27.5% | viability, T/C [26] 39.1% | viability, T/C [27] 43.6% | viability, T/C [28] 42.6% | viability, T/C [29] 42.5% | viability, T/C [30] 37.4% | viability, T/C [31] 29.4% | viability, T/C [32] 41.9% | viability, T/C [33] 34.3% | viability, T/C [34] 32.9% | viability, T/C [35] 37.3% | viability, T/C [36] 32.8%
< 31.6 nM: IC50 (second compound 1 µM) | IC50 (second compound 3.16 µM) | IC50 (second compound 10 µM)
> 10000 nM: IC50 (second compound 0.0316 µM) | IC50 (second compound 0.1 µM) | IC50 (second compound 0.316 µM)

Cc1[nH]c2ccccc2c1CCNCc1ccc(/C=C/C(=O)NO)cc1 + Cc1cnc(CNC(=O)c2c(=O)c3ccc(N4CCCN(C)CC4)nc3n3c2sc2ccccc23)cn1
inactive: viability, T/C (second compound 0.0316 µM, first compound 0.000999 µM) 108% | viability, T/C (second compound 0.0316 µM, first compound 0.00316 µM) 101% | viability, T/C (second compound 0.0316 µM, first compound 0.00999 µM) 110% | viability, T/C [1] 48.9% | viability, T/C (second compound 0.1 µM, first compound 0.000999 µM) 77.5% | viability, T/C (second compound 0.1 µM, first compound 0.00316 µM) 79.7% | viability, T/C (second compound 0.1 µM, first compound 0.00999 µM) 61.4% | viability, T/C [7] 36.7% | viability, T/C (second compound 0.1 µM, first compound 0.0999 µM) 15.4% | viability, T/C (second compound 0.316 µM, first compound 0.000999 µM) 58.4% | viability, T/C (second compound 0.316 µM, first compound 0.00316 µM) 52.8% | viability, T/C (second compound 0.316 µM, first compound 0.00999 µM) 49.2% | viability, T/C [13] 34.9% | viability, T/C (second compound 0.316 µM, first compound 0.0999 µM) 9.31% | viability, T/C (second compound 1 µM, first compound 0.000999 µM) 40.5% | viability, T/C (second compound 1 µM, first compound 0.00316 µM) 40.9% | viability, T/C (second compound 1 µM, first compound 0.00999 µM) 38.4% | viability, T/C [19] 20% | viability, T/C (second compound 3.16 µM, first compound 0.000999 µM) 35% | viability, T/C (second compound 3.16 µM, first compound 0.00316 µM) 38.6% | viability, T/C (second compound 3.16 µM, first compound 0.00999 µM) 28.3% | viability, T/C [25] 21.6% | viability, T/C (second compound 10 µM, first compound 0.000999 µM) 34.7% | viability, T/C (second compound 10 µM, first compound 0.00316 µM) 36.3% | viability, T/C (second compound 10 µM, first compound 0.00999 µM) 28.8% | viability, T/C [31] 18.9%
17.9 nM: IC50 (second compound 0.1 µM)
active: viability, T/C (second compound 0.0316 µM, first compound 0.0999 µM) 13.6% | viability, T/C [3] 1.14% | viability, T/C [9] 0.78% | viability, T/C [15] 1.35% | viability, T/C (second compound 1 µM, first compound 0.0999 µM) 4.65% | viability, T/C [21] 0.08% | viability, T/C (second compound 3.16 µM, first compound 0.0999 µM) 0.18% | viability, T/C [27] 0.11% | viability, T/C (second compound 10 µM, first compound 0.0999 µM) 0.27% | viability, T/C [33] 0.24%
30.9 nM: IC50 (second compound 0.0316 µM)
10.2 nM: IC50 (second compound 0.316 µM)
< 0.999 nM: IC50 (second compound 1 µM) | IC50 (second compound 3.16 µM) | IC50 (second compound 10 µM)
